# Read-outs that look alike come from different tables or passages of the source.
# Columns and labels:
# Type in all cases: biochemical
# [1] = test system: DB-250 (Amano Pharmaceutical Co., Ltd.), Enzyme B, debranching enzyme from Bacillus sectorramus
# Method: (§1) To 0.5 ml of a 1% pullulan solution in a 100 mM McIlvaine's buffer solution (pH=5.0) was added 0.5 ml of an enzyme solution, and the system was allowed to react at 50° C. for 30 minutes. The reducing power thus produced was quantitatively determined through a 3,5-dinitrosalicylic acid reaction (the DNS method; cf. Borel et al., Helv. Chim. Acta., 35, 115 (1952)). The activity producing reducing power corresponding to 1 μmol of maltotriose for 1 minute was taken as one unit.
# [2] = test system: debranching enzyme (α-1,6-glucosidase) of the invention from Bacillus sp. APC-9603
# Method: as §1
# [3] = test system: Promozyme (Novo Nordisk A/S), Enzyme A, debranching enzyme from Bacillus acidopullulyticus
# Method: as §1
# [4] = Table 5, conditions not restated
# [5] = Table 5, inhibitor 1 mM, 50 mM acetic acid buffer pH 5.0, 40° C., 30 minutes
# [6] = inhibitor at final concentration 1 mM, 50 mM acetic acid buffer pH 5.0, 40° C., 30 minutes, no inhibitor = 100
structure (smiles),measurement,setting,value
O=C(O)CN(CCN(CC(=O)O)CC(=O)O)CC(=O)O [EDTA],"Influence of Inhibitor (residual activity), Enzyme B",[1],93%
same,"Influence of Inhibitor (residual activity), Enzyme of Invention",[2]; pH 5,90%
same,Inhibition (in words),[2]; pH 5,Slightly inhibited
same,Residual Activity,[2]; pH 5,90%
same,"Influence of Inhibitor (residual activity), Enzyme A",[3],129%
"O=C(O)CI [MIA, monoiodoacetic acid]","Influence of Inhibitor (residual activity), Enzyme B",[1],67%
same,"Influence of Inhibitor (residual activity), Enzyme of Invention",[2]; pH 5,105%
same,Inhibition (in words),[2]; pH 5,Non-inhibited
same,Residual Activity,[2]; pH 5,105%
same,"Influence of Inhibitor (residual activity), Enzyme A",[3],68%
"CCN1C(=O)C=CC1=O [N-EMI, N-ethylmaleimide]","Influence of Inhibitor (residual activity), Enzyme B",[1]; [4],66%
same,"Influence of Inhibitor (residual activity), Enzyme of Invention",[2]; [5],104%
same,Residual Activity,[2]; [6],104%
same,Inhibition (in words),[2]; pH 5,Non-inhibited
same,"Influence of Inhibitor (residual activity), Enzyme A",[3]; [4],69%
"O=C(O)c1cc[c]([Hg][OH])cc1 [p-CMB, p-mercuri-benzoic acid]","Inhibition (in words), Enzyme B",[1],inhibited by p-CMB to a large extent
same,"Influence of Inhibitor (residual activity), Enzyme B",[1]; [4],27%
same,"Influence of Inhibitor (residual activity), Enzyme of Invention",[2]; [5],81%
same,Inhibition (in words),"[2]; inhibitor 1 mM, pH 5.0, 40° C., 30 minutes",Slightly inhibited
same,Residual Activity,[2]; [6],81%
same,"Inhibition (in words), Enzyme A",[3],inhibited by p-CMB to a large extent
same,"Influence of Inhibitor (residual activity), Enzyme A",[3]; [4],14%

# From patent US5387516A, “Heat stable debranching enzyme from a Bacillus microorganism” (priority 1992, dated 1995)
